Measured values: ChEMBL document CHEMBL1132216, “Studies on the monoamine oxidase-B-catalyzed biotransformation of 4-azaaryl-1-methyl-1,2,3,6-tetrahydropyridine derivatives” (J Med Chem, 1999)

Test: Ratio of Kcat versus Km was determined

SMILES	Ratio
CN1CC=C(c2cccn2C)CC1	1800
CN1CC=C(c2ccc[nH]2)CC1	46
